The results in this text go back to patent EP1779853A2, “9a-azalides as veterinary antimicrobial agents” (Merial Ltd., priority 1997, dated 1999).

Experiment in all cases: MIC determination (culture tube dilution) against veterinary pathogens
Holding throughout (assay type): cell-based

The subject of one experiment is A. pleuropneumoniae. The conditions noted are these: Actinobacillus pleuropneumoniae, one range summarising both compounds. Here is the method: (§1) The antibacterial activity of representative 9a-azalides against a panel of veterinary pathogens was determined by the minimum inhibitory concentration (MIC) method well known in the art. This is done by preparing a series of culture tubes, each containing a medium with a different concnetration of the antimicrobial agent, and inoculating all the tubes with the same organism. The lowest concentration of agent that completely prevents the appearance of turbidity is noted, and this concentration is called the MIC.

Another experiment has as its system E. coli. The note with it: Escherichia coli, one range summarising both compounds. As to the method:
as §1

The subject of the next experiment is H. somnus. The conditions noted are these: one range summarising both compounds. Here is the method:
as §1

The subject of another experiment is P. haemolytica. The note with it: Mannheimia haemolytica, one range summarising both compounds. Here is the method:
as §1

The test system of a further experiment is P. multocida. The note with it: Pasteurella multocida, one range summarising both compounds. As to the method: as §1
For another experiment, the system named is Salmonella spp. The conditions noted are these: one range summarising both compounds. As to the method:
as §1

Converted amounts (≈) assume the structure as drawn.

Consider `CC[C@H]1OC(=O)[C@H](C)[C@@H](O[C@H]2C[C@@](C)(OC)[C@@H](O)[C@H](C)O2)[C@H](C)[C@@H](O[C@@H]2O[C@H](C)C[C@H](N(C)C)[C@H]2O)[C@](C)(O)C[C@@H](C)CN(C)[C@H](C)[C@@H](O)[C@]1(C)O` [azithromycin, 9-deoxo-9a-aza-9a-methyl-9a-homoerythromycin A], for which the MIC in the experiment on A. pleuropneumoniae lay within 0.062 to 0.5 µg/mL (≈ 0.0828 to 0.668 µM); against E. coli, 0.5 to 16 µg/mL (≈ 0.668 to 21.4 µM); against H. somnus, 0.062 to 0.25 µg/mL (≈ 0.0828 to 0.334 µM); with P. haemolytica, 0.125 to 0.5 µg/mL (≈ 0.167 to 0.668 µM); in the experiment with P. multocida, 0.125 to 2 µg/mL (≈ 0.167 to 2.67 µM); with Salmonella spp. it was 1 to 16 µg/mL (≈ 1.34 to 21.4 µM).

In the case of `CC[C@H]1OC(=O)[C@H](C)[C@@H](O[C@H]2C[C@@](C)(OC)[C@@H](N)[C@H](C)O2)[C@H](C)[C@@H](O[C@@H]2O[C@H](C)C[C@H](N(C)C)[C@H]2O)[C@](C)(O)C[C@@H](C)CN(C)[C@H](C)[C@@H](O)[C@]1(C)O` [4"-deoxy-4"-aminoazithromycin], the MIC against A. pleuropneumoniae was 0.062 to 0.5 µg/mL (≈ 0.0829 to 0.668 µM); against E. coli, 0.5 to 16 µg/mL (≈ 0.668 to 21.4 µM); with H. somnus, 0.062 to 0.25 µg/mL (≈ 0.0829 to 0.334 µM); against P. haemolytica it was 0.125 to 0.5 µg/mL (≈ 0.167 to 0.668 µM); in the experiment with P. multocida it was 0.125 to 2 µg/mL (≈ 0.167 to 2.67 µM); against Salmonella spp., 1 to 16 µg/mL (≈ 1.34 to 21.4 µM).

By MIC is commonly meant the lowest concentration that inhibits growth of the organism. Read a high MIC as a need for much substance.
